{"source": "patent US20050037446A1", "about": "“Agents that recognize src when phosphorylated at serine 17” (priority 2001, published 2005)", "key": {"ERK1/2": {"tested_on": "ERK1/2", "assay": "ERK1/2 phosphorylation Western blot, NIH3T3 cells", "assay_type": "cell-based", "details": "inhibition of SFKs", "procedure": "To determine the role of SFKs in cAW's antagonism of extracellular signal regulated kinase (ERK) activation, the following methods were used. NIH3T3 cells were incubated in the presence or absence of either H89 or PP2 for 20 minutes, pretreated with Forskolin for five minutes, and then stimulated with 100 ng/ml, epidermal growth factor (EGF, Sigma), or 100 ng/ml platelet-derived growth factor (PDGF, Sigma) for five minutes, as described in EXAMPLE 1. Cell lysates were analyzed by Western blot for phosphorylation of endogenous ERK1/2 or total ERK2. To detect phosphorylation of endogenous ERK1/2, phosphorylation-specific ERK antibodies (PERK) that recognize phosphorylated ERK1 (pERK1) and ERK2 (pERK2), at residues threonine 183 and tyrosine 185 were used (New England Biolabs, Beverly, Mass.)."}, "Rap1": {"tested_on": "Rap1", "details": "NIH3T3 cells, pretreatment; cited from earlier work"}, "Ras [1]": {"tested_on": "Ras", "assay": "Ras activation affinity assay (GST-Raf1-RBD), Hek293 cells", "assay_type": "cell-based", "procedure": "(§1) Endogenous GTP-loaded Ras was determined using a Ras activation affinity assay as follows. Hek293 cells were grown, stimulated, and lysed as described above. Activated Ras was assayed as previously described (Schmitt and Stork, Mol. Cell. Biol. 21:3671-83, 2001). Briefly, equivalent amounts of lysates from stimulated cells were incubated with GST-Rafl-RBD (Ras-binding domain) as specified by the manufacturer (Upstate Biotechnology, Lake Placid, N.Y.). Proteins were eluted with 2×Laemmli buffer and applied to a 12% SDS polyacrylamide gel. Proteins were transferred to a PVDF membrane, blocked at room temperature for 1 hour in 5% milk and probed with either Ras or Flag antibody overnight at 4° C., followed by an HRP-conjugated anti-mouse secondary. Proteins were detected using enhanced chemiluminescence.\nMutation of tyrosine 527 of Src to phenylanaline (Y527F) produces a constitutively active (oncogenic) Src by eliminating the inhibitory phosphorylation at Y527 (Xu et al. Mol. Cell. 3(5): 629-38, 1999; Brown and Cooper, Biochim. Biophys. Acta 1287(2-3): 121-49, 1996). To determine the effect of this mutant on Ras and Rap1 activation, Hek293 cells were transfected with Flag-tagged Rap1 or Flag-tagged Ras, in the presence or absence of pcDNA3, SrcY527F, SrcS17A/Y527F, SrcS17D/Y527F, CBR, or Cb1-ct using the methods described above. […]"}, "Ras [2]": {"tested_on": "Ras", "assay": "Ras activation affinity assay in SYF and Src++ cells", "assay_type": "cell-based, mouse", "procedure": "as §1\nTo determine which SFK was mediating these effects, cell lines derived from mouse embryo fibroblasts that lack SFKs, were used as described in Example 3. SYF and Srcd cells were transfected with Flag-Rap 1, and WT Src or pcDNA3 vector alone as described in Example 3. Cells were stimulated with isoproterenol or left untreated, and then cell lysates were examined for active GTP-loaded Rap1 (Flag-Rap1-GTP) as described in Examples 1 and 6. Isoproterenol's ability to activate Rap1 was absent in SYF cells, but was retained in Src^++ cells. […]"}}, "data": [{"smiles": "CC(C)(C)n1nc(-c2ccc(Cl)cc2)c2c(N)ncnc21", "note": "[PP2, 4-amino-5-(4-chlorophenyl)-7-(t-butyl)pyazolo[3,4-d]pyrimidine]", "values": [{"measurement": "Effect on EGF's or PDGF's activation of ERKs", "setting": "ERK1/2", "result": "no observable effect"}, {"measurement": "Effect on Forskolin's inhibition of ERKs", "setting": "ERK1/2", "result": "prevented Forskolin's inhibition of ERKs"}]}, {"smiles": "O=S(=O)(NCCNC/C=C/c1ccc(Br)cc1)c1cccc2cnccc12", "note": "[H89, N-[2(Bromocimamylamino)ethyl]-5-isoquinolinesulfonamide]", "values": [{"measurement": "Effect on Forskolin's activation of endogenous Rap1", "setting": "Rap1", "result": "blocked"}]}, {"smiles": "CC(C)NCC(O)c1ccc(O)c(O)c1", "note": "(stereo not drawn) [isoproterenol]", "values": [{"measurement": "Activation of endogenous Ras", "setting": "Ras [1]", "result": "activated endogenous Ras"}, {"measurement": "Ras activation by agonist", "setting": "Ras [2]; SYF cells", "result": "absent"}, {"measurement": "Ras activation by agonist", "setting": "Ras [2]; Src++ cells", "result": "retained"}]}]}
